The text below walks through data of US10889573B2, “Anthelmintic quinoline-3-carboxamide derivatives” (Bayer Animal Health GMBH, priority 2016, dated 2021).

pEC50: −log10 of the molar value.

One series has as its system Cooperia curticei. Conditions: Cooperia curticei, 120 h, read-out: activity (larval mortality).
Series [1] deals with Dirofilaria immitis third-stage larvae. Briefly: In vitro assay 4: Dirofilaria immitis (DIROIM L4), motility. Conditions: 72 h, read-out: EC50 (reduction of motility).
The test system of series [2] is Litomosoides sigmodontis third-stage larvae. Conditions: 72 h, read-out: EC50 (reduction of motility).
Method: In Vitro Assay 5: Litomosoides sigmodontis (LTMOSI L3)
10 Litomosoides sigmodontis third-stage larvae, which were freshly isolated from the pleural cavity of an infected rodent, were added to wells of a microtitre plate containing a nutrient medium and the test compound in DMSO. Compounds were tested in concentration-response assay in duplicate. Larvae exposed to DMSO and no test compounds were used as negative controls. Larvae were evaluated after 72 h of incubation with the compound. Efficacy was determined as the reduction of motility in comparison to the negative control. Based on the evaluation of a wide concentration range, concentration-response curves as well as EC50-values were calculated.
A short description of series [3]: log P by HPLC on reversed phase columns (Method L0).
Method: Measurement of log P values was performed according to EEC directive 79/831 Annex V.A8 by HPLC (High Performance Liquid Chromatography) on reversed phase columns with the following methods: • ^[a] log P value is determined by measurement of LC-UV, in an acidic range, with 0.1% formic acid in water and acetonitrile as eluent (linear gradient from 10% acetonitrile to 95% acetonitrile). • ^[b] log P value is determined by measurement of LC-UV, in a neutral range, with 0.001 molar ammonium acetate solution in water and acetonitrile as eluent (linear gradient from 10% acetonitrile to 95% acetonitrile).
Calibration was done with straight-chain alkan-2-ones (with 3 to 16 carbon atoms) with known log P values (measurement of log P values using retention times with linear interpolation between successive alkanones).
The target of another series is C. elegans Slo-1a (Caenorhabditis elegans, UniProt Q95V25). Conditions: pE50 (negative decadic logarithm of EC50), CHO cells expressing C. elegans Slo-1a, voltage sensitive dye.
Chain of C. elegans Slo-1a (Q95V25 whole entry): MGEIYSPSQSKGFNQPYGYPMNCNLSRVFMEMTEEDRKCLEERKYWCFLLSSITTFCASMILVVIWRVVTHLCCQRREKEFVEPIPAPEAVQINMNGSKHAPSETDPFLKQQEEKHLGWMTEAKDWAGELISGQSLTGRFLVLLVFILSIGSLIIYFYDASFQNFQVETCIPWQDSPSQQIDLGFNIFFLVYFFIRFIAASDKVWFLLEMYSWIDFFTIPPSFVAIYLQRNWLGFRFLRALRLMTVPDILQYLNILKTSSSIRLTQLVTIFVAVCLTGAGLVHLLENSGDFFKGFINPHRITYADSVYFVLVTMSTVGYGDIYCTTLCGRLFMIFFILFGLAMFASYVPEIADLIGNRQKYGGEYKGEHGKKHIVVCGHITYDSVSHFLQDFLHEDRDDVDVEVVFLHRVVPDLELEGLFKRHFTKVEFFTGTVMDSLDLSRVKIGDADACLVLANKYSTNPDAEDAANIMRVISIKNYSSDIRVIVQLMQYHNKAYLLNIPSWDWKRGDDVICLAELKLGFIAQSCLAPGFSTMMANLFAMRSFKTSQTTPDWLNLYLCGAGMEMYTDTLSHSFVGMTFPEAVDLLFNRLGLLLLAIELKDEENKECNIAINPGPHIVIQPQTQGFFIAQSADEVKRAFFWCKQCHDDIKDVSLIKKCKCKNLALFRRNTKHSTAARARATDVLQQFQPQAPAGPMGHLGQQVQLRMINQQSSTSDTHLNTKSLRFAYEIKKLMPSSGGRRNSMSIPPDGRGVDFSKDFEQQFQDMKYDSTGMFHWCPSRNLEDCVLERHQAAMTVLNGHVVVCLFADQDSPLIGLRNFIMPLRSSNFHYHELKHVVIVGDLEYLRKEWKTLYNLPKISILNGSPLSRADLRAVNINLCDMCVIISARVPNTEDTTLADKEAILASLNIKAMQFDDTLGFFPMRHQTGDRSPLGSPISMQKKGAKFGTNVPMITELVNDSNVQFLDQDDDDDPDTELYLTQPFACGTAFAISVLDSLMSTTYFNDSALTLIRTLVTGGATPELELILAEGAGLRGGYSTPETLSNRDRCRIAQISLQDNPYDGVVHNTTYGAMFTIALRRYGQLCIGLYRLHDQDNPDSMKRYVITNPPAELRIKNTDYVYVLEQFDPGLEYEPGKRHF
For series [4], the system named is Nippostrongylus brasiliensis. The experiment in a line: In vitro assay 2: Nippostrongylus brasiliensis (NIPOBR), acetylcholine esterase readout. The note with it: 1 μg/ml, read-out: activity (reduction of AChE compared to negative control). The method in brief:
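Readout was acetylcholine esterase activity released into the medium, compared with negative control, after exposing adult worms to compounds at final 10 ppm (10 μg/ml) or 1 ppm (1 μg/ml). Worms were first washed in antibiotic/amphotericin B-containing saline; compounds were dissolved in DMSO.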

Series [5] deals with Dirofilaria immitis microfilariae. The experiment in a line: In vitro assay 3: Dirofilaria immitis microfilariae (DIROIM L1), motility. The note with it: 72 h, read-out: EC50 (reduction of motility), 72 h incubation.
The test system of the next series is Haemonchus contortus. Conditions: 120 h, read-out: activity (larval mortality).

Method for Cooperia curticei: In Vitro Assay 6: Cooperia curticei (COOPCU L3)
Solvent: dimethyl sulfoxide
Approximately 40 nematode larvae (Cooperia curticei) are transferred into a test tube containing the compound solution.
After 5 days percentage of larval mortality is recorded. 100% efficacy means all larvae are killed; 0% efficacy means no larvae are killed.
Method for Haemonchus contortus: In Vitro Assay 7: Haemonchus contortus (HAEMCO L3)
Solvent: dimethyl sulfoxide
Approximately 40 larvae of the red stomach worm (Haemonchus contortus) are transferred into a test tube containing compound solution.
After 5 days the percentage of larval mortality is recorded. 100% efficacy means all larvae are killed, 0% efficacy means no larvae are killed.

Broadly, the mortality is the percentage killed. As a reminder, the EC50 is the midpoint of the concentration-response curve. A word on the chromatographic logP: it is a lipophilicity value derived from retention on a column. A low value points to lower lipophilicity. For orientation: pEC50 means −log10 of the EC50, conventionally taken in molar units. A higher pEC50 goes with a small EC50. Take `CCc1c(C(=O)N[C@H]2CCOc3ccccc32)cnc2c(-c3cc(Cl)cc(Cl)c3)cccc12` [Example 350, 8-(3,5-dichlorophenyl)-N-[(4S)-3,4-dihydro-2H-chromen-4-yl]-4-ethyl quino-line-3-carboxamide]: the mortality at 4 ppm in the series on Cooperia curticei and in the series with Haemonchus contortus was 100% throughout. Further, the mortality at 20 ppm with Cooperia curticei and with Haemonchus contortus was 100% throughout. Besides, the half-maximal effective concentration (EC50) in series [1], in series [2] and in series [5] was less than 0.1 µg/mL each time. Further, the chromatographic logP in series [3] was 5.06. Besides, on C. elegans Slo-1a, the pEC50 was more than 8.50. In addition, in series [4], the inhibition at 1 µg/mL was more than 80%.
As for `O=C(N[C@H]1CCOc2ccccc21)c1cnc2c(-c3cc(Cl)cc(Cl)c3)cccc2c1-c1ccncc1` [Example 396], the mortality at 4 ppm with Cooperia curticei came out at 100%; with Haemonchus contortus, 90%. Further, the mortality at 20 ppm with Cooperia curticei and with Haemonchus contortus was 100% each time. Also, the EC50 in series [1], in series [2] and in series [5] was less than 0.1 µg/mL throughout. On C. elegans Slo-1a, this molecule gave a negative-log EC50 (pEC50) of more than 8.50. Further, the inhibition at 1 µg/mL in series [4] was more than 80%.
